Data taken from PubChem BioAssay AID258 (DTP/NCI, 2004).
Toxic doses and inconclusive results are not listed. How the source made its calls: active means survival T/C of 150% or more; inactive means T/C below 125% in these data.

System: CD2F1 mice, L1210 leukemia sc, survival T/C
Test: NCI In Vivo Anticancer Drug Screen. Data for tumor model L1210 Leukemia (subcutaneous) in CD2F1 (CDF1) mice
Conditions: endpoint: median survival time, higher = longer survival
Description: The antitumor activity of compounds was measured in mice bearing transplantable tumors. Survival or tumor size were measured and the results are expressed as the measurement made in the treated group (T) divided by the measurement made in the vehicle treated control group (C). The tumor model used in this assay is L1210 Leukemia (subcutaneous) in CD2F1 (CDF1) mice

Measured: T/C

CS(=O)(=O)OCCCCOS(C)(=O)=O
inactive: dose: 8.4 mg/kg/injection, schedule: Q01DX Z (sc), vehicle: methylcellulose (MC) 100 % of control | dose: 14.0 mg/kg/injection, schedule: Q01DX Z (sc), vehicle: methylcellulose (MC) 100 % of control | dose: 23.0 mg/kg/injection, schedule: Q01DX Z (sc), vehicle: methylcellulose (MC) 100 % of control | dose: 39.0 mg/kg/injection, schedule: Q01DX Z (sc), vehicle: methylcellulose (MC) 100 % of control | dose: 65.0 mg/kg/injection, schedule: Q01DX Z (sc), vehicle: methylcellulose (MC) 100 % of control | dose: 108.0 mg/kg/injection, schedule: Q01DX Z (sc), vehicle: methylcellulose (MC) 100 % of control

O=NNc1cnccn1
inactive: dose: 8.6 mg/kg/injection, schedule: Q01DX009 (ip), vehicle: water 96 % of control | dose: 14.4 mg/kg/injection, schedule: Q01DX009 (ip), vehicle: water 104 % of control | dose: 24.0 mg/kg/injection, schedule: Q01DX009 (ip), vehicle: water 100 % of control | dose: 66.66 mg/kg/injection, schedule: Q01DX009 (ip), vehicle: water 95 % of control | dose: 66.67 mg/kg/injection, schedule: Q01DX009 (ip), vehicle: water 120 % of control
